The values below come from patent publication US8653096B2, “Chemokine receptor antagonists and methods of use thereof” (Millennium Pharmaceuticals, Inc., priority 2001, dated 2014).

What is called IC50 is the concentration at which inhibition is half-maximal.

The target in this assay is T1, RANTES/MIP-1α chemokine receptor (CCR1) in THP-1 cell membranes (Homo sapiens, UniProt P32246).
T1 construct: Membranes were prepared from THP-1 cells (ATCC #TIB202); host or cells: THP-1 cells (membrane preparation)
T1 sequence (P32246 1-355): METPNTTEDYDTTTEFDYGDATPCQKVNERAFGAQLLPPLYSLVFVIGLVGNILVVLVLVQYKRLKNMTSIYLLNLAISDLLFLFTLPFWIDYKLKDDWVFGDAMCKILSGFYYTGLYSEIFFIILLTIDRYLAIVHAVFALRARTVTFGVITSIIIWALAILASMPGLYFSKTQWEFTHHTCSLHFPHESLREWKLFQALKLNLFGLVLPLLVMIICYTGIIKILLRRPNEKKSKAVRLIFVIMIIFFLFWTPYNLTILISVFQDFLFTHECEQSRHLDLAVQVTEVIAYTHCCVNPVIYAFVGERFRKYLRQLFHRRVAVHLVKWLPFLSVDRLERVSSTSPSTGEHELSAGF
The experiment in a line: Receptor binding assay: 125I-RANTES or 125I-MIP-1α binding to THP-1 cell membranes. Conditions: inhibitor concentration required for 50% inhibition of specific binding; 125I-RANTES or 125I-MIP-1α as ligand, THP-1 cell membranes; read-out: IC50.
Consider `CC(C)NC(=O)N(Cc1ccc(Cl)cc1)C1CCN(CCC=C2c3cc(C(C)(C)O)ccc3OCc3ncccc32)C1` (stereo not drawn) [Example 567, 1-(4-Chloro-benzyl)-1-(1-{3-[7-(1-hydroxy-1-methyl-ethyl)-11H-10-oxa-1-aza-dibenzo[a,d]cyclohepten-5-ylidene]-propyl}-pyrrolidin-3-yl)-3-isopropyl-urea], for which the concentration for half-maximal inhibition (IC50) was less than 1000 nM.
For `COc1ccc2c(c1)C(=CCCN1CCN(S(=O)(=O)c3ccc(C)cc3)CC1)c1cccnc1CO2` [Example 89, 1-[3-(5,11-Dihydro-7-methoxy[1]benzoxepino[2,3-b]pyridin-5-ylidene)propyl]-4-(p-tosyl)piperazine] the value was more than 10000 nM.
For “4-(2-Chlorophenyl)-1-[3-(5,11-dihydro-7-methoxy[1]benzoxepino[2,3-b]pyridin-5-ylidene)propyl]piperidin-4-ol [Example 76]”, the concentration for half-maximal inhibition (IC50) was less than 10000 nM.
Regarding `CC(C)(CO)Oc1ccc2c(c1)C(=CCCN1CCC(O)(c3ccc(Cl)cc3)C(C)(C)C1)c1cccnc1CO2` (stereo not drawn) [Example 511, 4-(4-Chloro-phenyl)-1-{3-[7-(2-hydroxy-1,1-dimethyl-ethoxy)-11H-10-oxa-1-aza-dibenzo[a,d]cyclohepten-5-ylidene]-propyl}-3,3-dimethyl-piperidin-4-ol], the IC50 is less than 1000 nM.
In the case of `COCCOc1ccc2c(c1)C(=CCCN1CCC(O)(c3ccc(Cl)cc3)CC1)c1cccnc1CO2` [Example 175], the concentration for half-maximal inhibition (IC50) is less than 1000 nM.
To “4-(3,4-Dichlorophenyl)-1-[3-(5,11-dihydro-7-methoxy[1]benzoxepino[2,3-b]pyridin-5-ylidene)propyl]piperidin-4-ol [Example 79]” belongs less than 1000 nM; to `CC(C)(O)c1ccc2c(c1)C(=CCCN1CC[C@@](O)(c3ccc(Cl)cc3)C(C)(C)C1)c1cccnc1CO2` [Example 503, R-4-(4-Chloro-phenyl)-1-{3-[7-(1-hydroxy-1-methyl-ethyl)-11H-10-oxa-1-aza-dibenzo[a,d]cyclohepten-5-ylidene]-propyl}-3,3-dimethyl-piperidin-4-ol], less than 1000 nM; to `CC(C)(C)C(=O)OCOC(=O)c1ccc2c(c1)C(=CCCN1CCC(O)(c3ccc(Cl)cc3)CC1)c1cccnc1CO2` [Example 432, 4-(4-Chlorophenyl)-1-[3-(5,11-dihydro-7-(1-2,2-dimethylpropionyl-oxymethyl)-oxycarbonyl-[1]benzoxepino[2,3-b]pyridin-5-ylidene)propyl]piperidine-4-ol], less than 1000 nM.
To `Cc1cc(Cl)ccc1N1CCN(CCC=C2c3cc(C(C)(C)O)ccc3OCc3ncccc32)CC1` [Example 539, 2-(5-{3-[4-(4-Chloro-2-methyl-phenyl)-piperazin-1-yl]-propylidene}-5,11-dihydro-10-oxa-1-aza-dibenzo[a,d]cyclohepten-7-yl)-propan-2-ol] belongs less than 10000 nM.
For the compound “4-(4-Chlorophenyl)-1-[3-(5,11-dihydro-7-ethoxy [1]benzoxepino[2,3-b]pyridin-5-ylidene)propyl]piperidin-4-ol [Example 46]”, the IC50 is less than 1000 nM.
Turning to “4-(4-Chlorophenyl)-1-[3-(5,11-dihydro-7-dimethylaminocarbonylmethyloxy[1]benzoxepino[2,3-b]pyridin-5-ylidene)propyl]piperidine [Example 155]”, the IC50 is less than 1000 nM.
For `CCC(=O)NC1CN(CCC=C2c3cc(C(C)(C)O)ccc3OCc3ncccc32)CCC1(O)c1ccc(Cl)cc1` (stereo not drawn) [Example 478, N-[4-(4-Chloro-phenyl)-4-hydroxy-1-{3-[7-(hydroxyl-1-methyl-ethyl)-11H-10-oxa-1-aza-dibenzo[a,d]cyclohepten-5-ylidene]-propyl}-piperidin-3-yl)-propionamide] the value was less than 10000 nM.
To `NCc1ccc2c(c1)C(=CCCN1CCC(O)(c3ccc(Cl)cc3)CC1)c1ccccc1CO2` [Example 29, 1-[3-(2-Aminomethyl-6,11-dihydrodibenz[b,e]oxepin-11-ylidene)propyl]-4-(4-chlorophenyl)piperidin-4-ol] belongs less than 1000 nM; to “4-(4-Chlorophenyl)-1-[3-(7-cyclopentoxy-5,11-dihydro[1]benzoxepino[2,3-b]pyridin-5-ylidene)propyl]piperidin-4-ol [Example 174]”, less than 1000 nM; to `CC(C)(O)c1ccc2c(c1)C(=CCCN1CCC3(CC1)OC(=O)c1cc(Cl)ccc13)c1cccnc1CO2` [Example 472, 5-Chloro-1-{3-[7-(1-hydroxy-1-methyl-ethyl)-11H-10-oxa-1-aza-dibenzo[a,d]-cyclohepten-5-ylidene}-propyl]-spiro[3-oxo-1,3-dihydroisobenzofuran-1,4′-piperidine]], less than 1000 nM.
For `CC1(C)CN(CCC=C2c3cc(OCC(N)=O)ccc3OCc3ncccc32)CCC1(O)c1ccc(Cl)cc1` (stereo not drawn) [Example 516, 2-(5-{3-[4-(4-Chloro-phenyl)-4-hydroxy-3,3-dimethyl-piperidin-1-yl]-propylidene}-5,11-dihydro-10-oxa-1-aza-dibenzo [a,d]cyclohepten-7-yloxy)-acetamide] the value was less than 1000 nM; for `CN(C)C(=O)C=Cc1ccc2c(c1)C(=CCCN1CCC(O)(c3ccc(Cl)cc3)CC1)c1cccnc1CO2` [Example 215, 4-(4-Chlorophenyl)-1-[3-(7-(2-dimethylaminocarboxy)ethenyl-5,11-dihydro[1]benzoxepino[2,3-b]pyridin-5-ylidene)propyl]piperidin-4-ol], less than 1000 nM; for `CC(C)(O)c1ccc2c(c1)C(=CCCN1CCC(Oc3ccc(C(F)(F)F)cc3)CC1)c1cccnc1CO2` [Example 497, 2-(5-{3-[4-(4-trifluoromethyl-phenoxy)-piperidin-1-yl]-propylidene}-5,11-dihydro-10-oxa-1-aza-dibenzo[a,d]cyclohepten-7-yl)-propan-2-ol], less than 10000 nM.
For “4-(4-Chlorophenyl)-1-[3-(5,11-dihydro-7-(1-cyclohexyloxycarbonyloxy)ethyloxycarbonyl[1]benzoxepino[2,3-b]pyridin-5-ylidene)propyl]piperidin-4-ol dihydrochloride [Example 306]”, the half-inhibitory concentration (IC50) was less than 1000 nM.
For “4-(4-Chlorophenyl)-1-[3-(5,11-dihydro-8-methoxy[1]benzoxepino[2,3-b]pyridin-5-ylidene)propyl]piperidin-4-ol [Example 114]” the value was less than 1000 nM; for `CC(C)(O)c1ccc2c(c1)C(=CCCN1CCC3(CC1)OC(=O)Nc1ccc(Cl)cc13)c1cccnc1CO2` [Example 520], less than 1000 nM.
For “1-[3-(5,11-Dihydro-7-methoxy[1]benzoxepino[2,3-b]pyridin-5-ylidene)propyl]-4-(2-pyridyl)piperidin-4-ol [Example 147]” the value was less than 10000 nM; for `CC(C)(O)c1ccc2c(c1)C(=CCCN1CCC(C)(c3ccccc3Cl)CC1)c1cccnc1CO2` [Example 521, 2-(5-{3-[4-(2-Chloro-phenyl)-4-methyl-piperidin-1-yl]-propylidene}-5,11-dihydro-10-oxa-1-aza-dibenzo[a,d]cyclohepten-7-yl)-propan-2-ol], less than 1000 nM; for “1-[3-(7-(2-Carbamoyl)ethyl-5,11-dihydro[1]benzoxepino[2,3-b]pyridin-5-ylidene)propyl]-4-(4-chlorophenyl)-piperidin-4-ol [Example 218]”, less than 1000 nM.
For the compound `CCOC(=O)C(C)(C)Oc1ccc2c(c1)C(=CCCN1CCC(O)(c3ccc(Cl)cc3)C(C)(C)C1)c1cccnc1CO2` (stereo not drawn) [Example 510, 2-(5-{3-[4-(4-Chloro-phenyl)-4-hydroxy-3,3-dimethyl-piperidin-1-yl]-propylidene}-5,11-dihydro-10-oxa-1-aza-dibenzo[a,d]cyclohepten-7-yloxy)-2-methyl-propionic acid ethyl ester], the half-maximal inhibitory concentration (IC50) was less than 1000 nM.
In the case of `CCOC(=O)COc1ccc2c(c1)C(=CCCN1CCC(c3ccc(Cl)cc3)CC1)c1cccnc1CO2` [Example 153, 4-(4-Chlorophenyl)-1-[3-(5,11-dihydro-7-thoxycarbonylmethyloxy[1]benzoxepino[2,3-b]pyridin-5-ylidene)propyl]piperidine], the IC50 was less than 1000 nM.
With `OC1(c2ccc(Cl)cc2)CCN(CCC=C2c3ccccc3COc3cc(Br)ccc32)CC1` [Example 35, 1-[3-(3-Bromo-6,11-dihydrodibenz [b,e]oxepin-11-ylidene)propyl]-4-(4-chlorophenyl)piperidin-4-ol], the IC50 is less than 1000 nM.
For `CC(C)(Oc1ccc2c(c1)C(=CCCN1CCC(O)(c3ccc(Cl)cc3)CC1)c1cccnc1CO2)C(N)=O` [Example 211, 1-[3-(7-(1-Carbamoyl-1-methyl)ethyloxy-5,11-dihydro [1]benzoxepino[2,3-b]pyridin-5-ylidene)propyl]-4-(4-chlorophenyl)piperidin-4-ol] the value was less than 1000 nM.
Take `CC(C)(O)c1ccc2c(c1)C(=CCCN1CC[C@](O)(c3ccc(Cl)cc3)[C@H](C#N)C1)c1cccnc1CO2` (relative stereo) [Example 479, Trans-4-(4-Chloro-phenyl)-4-hydroxy-1-{3-[7-(1-hydroxyl-1-methyl-ethyl)-11H-10-oxa-1-aza-dibenzo[a,d]cyclohepten-5-ylidene]-propyl}-piperidin-3-carbonitrile]: the 50% inhibitory concentration (IC50) is less than 1000 nM.
To “4-(4-Chlorophenyl)-1-[3-(5,11-dihydro-7-(ethoxycarbonylmethyl)-oxycarbonyl-[1]benzoxepino[2,3-b]pyridin-5-ylidene) propyl]piperidine-4-ol [Example 424]” belongs less than 1000 nM.
